In brackets after ≈: the same amount, converted by molar mass. Some results are limits rather than exact numbers.

The test system of one assay is T47D. Nature of the assay: Cytotoxicity against human T47D cells. The assay is classed as functional, cell-based.
Assay [1] relates to Mycobacterium tuberculosis. Nature of the assay: Antibacterial activity against Mycobacterium tuberculosis H37Rv at 6.25 ug/ml. The assay is classed as functional.
In a further assay the test system is NCI-H460. Nature of the assay: Cytotoxicity against human NCI-H460 cells. The assay is classed as functional, cell-based.
The subject of another assay is Plasmodium falciparum. The experiment in a line: Antiplasmodial activity against chloroquine-resistant Plasmodium falciparum W2. The assay is classed as functional, organism-based.
The test system of a further assay is CCRF-CEM. Nature of the assay: Cytotoxicity against human CCRF-CEM cells. The assay is classed as functional, cell-based.
For another assay, the system named is MCF7. Nature of the assay: Cytotoxicity against human MCF7 cells. The class given is functional, cell-based.

For `C=C(C)[C@H]([C@@H]1C=C(CCC(C=O)=C(C)C)C(=O)O1)[C@@]1(OC)C=C(C)C(=O)O1` [CAUCANOLIDE A], the concentration for half-maximal inhibition (IC50) – broadly, the concentration needed to halve the response being measured – stood at 25.8 µg/mL (≈ 68.9 µM) in the assay on T47D; 12.5 µg/mL (≈ 33.4 µM) with NCI-H460; 17 µg/mL (≈ 45.4 µM) in the assay on Plasmodium falciparum; 25.5 µg/mL (≈ 68.1 µM) in the assay with CCRF-CEM; 7.6 µg/mL (≈ 20.3 µM) in the assay on MCF7. The compound also had an Activity in assay [1] of 21%.

For the compound `C=C(C)[C@H]([C@@H]1C=C(CCC(C(=O)/N=C/N(C)C)=C(C)C)C(=O)O1)[C@@]1(OC)C=C(C)C(=O)O1` [CAUCANOLIDE B], the IC50 in the assay on Plasmodium falciparum was not below 50 µg/mL.

On to `CO[C@@]1([C@H]2[C@@H](O)C=C(CCC(C=O)=C(C)C)C(=O)OC2(C)C)C=C(C)C(=O)O1` [CAUCANOLIDE C], for which the IC50 with Plasmodium falciparum was not below 50 µg/mL.

In the assay with Plasmodium falciparum, `CO[C@]1(/C=C(\C)C[C@@H]2C=C(CCC(C=O)=C(C)C)C(=O)O2)C=C(C)C(=O)O1` [CAUCANOLIDE D] yielded an IC50 of 15 µg/mL (≈ 40.1 µM).

In turn, `CO[C@@](C)(/C=C1/C=C(C)C(=O)O1)C[C@@H]1C=C(CCC(C=O)=C(C)C)C(=O)O1` [CAUCANOLIDE E] had an IC50 in the assay on Plasmodium falciparum not below 50 µg/mL.

Compound `CO[C@](C)(/C=C1/C=C(C)C(=O)O1)C[C@@H]1C=C(CCC(C=O)=C(C)C)C(=O)O1` [CAUCANOLIDE F] had an IC50 in the assay on Plasmodium falciparum not below 50 µg/mL.
